# Experimental data: ChEMBL document CHEMBL1134047, “Binding of a cyclic BIV beta-Tat peptide with its TAR RNA construct” (Bioorg Med Chem Lett, 2001)
# System: Nucleic Acid
# Experiment: Binding affinity to the ([…]) BIV TAR RNA target was determined by fluorescence binding study
# Format: nucleic-acid assay, Bos taurus
structure (smiles),measurement,value
CC[C@H](C)[C@H](NC(=O)[C@H](CCCN=C(N)N)NC(=O)[C@H](CCCN=C(N)N)NC(=O)CNC(=O)[C@H](CCCCN)NC(=O)CNC(=O)[C@H](CCCN=C(N)N)NC(=O)[C@@H](NC(=O)CNC(=O)[C@H](CCCN=C(N)N)NC(=O)[C@H]1CCCN1C(=O)[C@H](CCCN=C(N)N)NC(=O)[C@H]1CCCN1C(=O)CNC(=O)[C@H](CO)NC(=O)[C@@H](N)CS)[C@@H](C)O)C(=O)N[C@@H](CCCN=C(N)N)C(N)=O,Kd,1.28 nM
CC[C@H](C)[C@@H]1NC(=O)[C@@H](CCCNC(=N)N)NC(=O)[C@H](CCCNC(=N)N)NC(=O)CNC(=O)[C@H](CCCCN)NC(=O)CNC(=O)[C@H](CCCNC(=N)N)NC(=O)[C@@H]([C@@H](C)O)NC(=O)CNC(=O)[C@@H](CCCNC(=N)N)NC(=O)[C@@H]2CCCN2C(=O)[C@@H](CCCNC(=N)N)NC(=O)[C@H]2CCCN2C(=O)CNC(=O)[C@@H](CO)NC(=O)[C@@H](N)CSSC[C@@H](C(=O)O)NC(=O)[C@H](CCCNC(=N)N)NC(=O)[C@@H](CCCNC(=N)N)NC1=O,Kd,0.273 nM
CC[C@H](C)[C@H](NC(=O)[C@H](CCCNC(=N)N)NC(=O)[C@H](CCCNC(=N)N)NC(=O)CNC(=O)[C@H](CCCCN)NC(=O)CNC(=O)[C@H](CCCNC(=N)N)NC(=O)[C@@H](NC(=O)CNC(=O)[C@H](CCCNC(=N)N)NC(=O)[C@H]1CCCN1C(=O)[C@H](CCCNC(=N)N)NC(=O)[C@H]1CCCN1C(=O)CNC(=O)[C@@H](N)CO)[C@@H](C)O)C(=O)N[C@@H](CCCNC(=N)N)C(=O)N[C@@H](CCCNC(=N)N)C(=O)O,Kd,1.32 nM
